Test results published in article PMC7672476, “Structural basis of Mfd-dependent transcription termination” (Nucleic Acids Research, 2020).

Target: T1, T. thermophilus Mfd (Thermus thermophilus, UniProt Q72KB4)
T1 construct: full-length, N-terminal hexahistidine tag, plasmid pET28a-NH-TthMfd, expressed in E. coli BL21(DE3)
T1 sequence (Q72KB4 1-978): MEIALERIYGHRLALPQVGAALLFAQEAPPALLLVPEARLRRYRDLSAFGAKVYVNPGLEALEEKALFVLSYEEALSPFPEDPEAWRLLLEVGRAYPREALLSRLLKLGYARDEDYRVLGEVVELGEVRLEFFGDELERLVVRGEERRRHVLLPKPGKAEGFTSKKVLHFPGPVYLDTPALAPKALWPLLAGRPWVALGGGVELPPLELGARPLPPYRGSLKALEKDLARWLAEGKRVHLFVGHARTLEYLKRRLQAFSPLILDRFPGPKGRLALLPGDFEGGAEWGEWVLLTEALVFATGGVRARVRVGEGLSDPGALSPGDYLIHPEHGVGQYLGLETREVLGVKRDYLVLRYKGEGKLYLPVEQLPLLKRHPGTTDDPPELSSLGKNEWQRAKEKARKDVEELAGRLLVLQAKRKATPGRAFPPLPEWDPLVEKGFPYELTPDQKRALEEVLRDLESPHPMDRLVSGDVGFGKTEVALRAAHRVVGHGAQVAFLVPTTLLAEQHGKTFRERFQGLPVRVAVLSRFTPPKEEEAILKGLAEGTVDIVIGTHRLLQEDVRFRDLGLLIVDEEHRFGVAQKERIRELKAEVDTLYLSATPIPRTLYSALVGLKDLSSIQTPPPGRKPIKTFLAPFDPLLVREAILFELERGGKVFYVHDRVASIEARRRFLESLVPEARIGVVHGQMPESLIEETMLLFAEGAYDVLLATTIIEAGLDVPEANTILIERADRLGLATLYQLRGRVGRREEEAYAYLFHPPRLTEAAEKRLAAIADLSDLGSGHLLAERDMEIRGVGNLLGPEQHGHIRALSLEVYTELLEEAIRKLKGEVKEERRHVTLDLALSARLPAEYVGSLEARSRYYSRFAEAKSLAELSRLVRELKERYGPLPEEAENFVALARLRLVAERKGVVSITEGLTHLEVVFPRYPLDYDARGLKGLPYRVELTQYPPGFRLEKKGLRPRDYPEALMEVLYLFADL
Test: colorimetric phosphate release ATPase assay
Format: biochemical
Details: 10 mM MgCl2, 0.1 M KCl, pH 7.9, 37°C; 0.4-2 mM ATP

## Nc1ncnc2c1ncn2[C@@H]1O[C@H](COP(=O)(O)OP(=O)(O)OP(=O)(O)O)[C@@H](O)[C@H]1O [ATP]
  colorimetric phosphate release ATPase assay: ATPase activity assay verified that T. thermophilus Mfd hydrolyzed ATP
